The structures appear in SMILES notation.

The first assay deals with T1, purified recombinant human p38 alpha MAPK (Homo sapiens, UniProt Q16539).
T1 construct: purchased Millipore, USA
T1 sequence (Q16539 whole entry): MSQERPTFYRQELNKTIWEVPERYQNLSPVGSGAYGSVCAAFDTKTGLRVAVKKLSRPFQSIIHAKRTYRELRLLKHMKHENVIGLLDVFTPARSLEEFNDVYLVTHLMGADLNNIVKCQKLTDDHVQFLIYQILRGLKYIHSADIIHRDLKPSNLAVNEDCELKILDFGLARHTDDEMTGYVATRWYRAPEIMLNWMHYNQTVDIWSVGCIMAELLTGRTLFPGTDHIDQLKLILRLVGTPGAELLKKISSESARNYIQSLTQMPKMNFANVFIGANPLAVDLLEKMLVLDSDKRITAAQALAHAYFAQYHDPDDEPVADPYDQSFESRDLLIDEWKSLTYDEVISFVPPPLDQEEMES
The assay can be described thus: Inhibition of p38 alpha MAPK activity: TR-FRET kinase assay. The class given is biochemical. The settings on record: Concentration 100 nM; read-out: P38α Inhibition. The protocol:
Inhibition of p38 Alpha MAPK Activity: Time-Resolved Fluorescence Resonance Energy Transfer Kinase Standard Assay (TR-FRET Assay)
Compounds of present invention at various concentrations were premixed with DMSO. The experiment was initiated by mixing 0.5% 1.0% DMSO as vehicle/compounds with purified recombinant human p38 alpha MAPK (Millipore, USA) in the wells and 15 min incubation at RT. Thereafter, 30 nM of Biotinylated GST-ATF2 (Activation Transcription Factor2) and 100 μM of ATP were added in to the wells containing reaction mixture, followed by reincubation for 60 minutes at RT. Reaction was terminated by addition of 10 mM of EDTA and detection reagent containing anti-phosphothreonine ATF2 antibody (Perkin Elmer, USA) labelled with europium chelate and APC (Allophycocyanin) labeled streptavidin, into the reaction mixture which was further incubated for 60 minutes at room temperature. The degree of phosphorylation of the substrate (GST-ATF2) was measured using Envision multimode reader (Perkin Elmer). Percentage inhibition of p38 kinase activity was calculated by determining ratio of specific europium 665 nm energy transfer signal to reference 615 nm signal.
A general note: Time-resolved FRET reads energy transfer from a long-lived donor to a nearby acceptor.
Consider `CCOC(=O)c1cnc2sc3cc(Oc4ccccc4CNC(=O)Nc4cc(C(C)(C)C)nn4-c4ccc(O)c(Cl)c4)ccc3n12` [Compound 25, ethyl 7-{2-[({[3-tert-butyl-1-(3-chloro-4-hydroxyphenyl)-1H-pyrazol-5-yl]carbamoyl}amino)methyl]phenoxy}imidazo[2,1-b][1,3]benzothiazole-3-carboxylate], for which the inhibition at 0.1 µM was in the range of 60 to 80%.

The same assay, now with this note: Concentration 1 μM; read-out: P38α Inhibition.
Take `CC(C)(C)c1cc(NC(=O)NCc2ccccc2Sc2ccc3c(c2)sc2ncc(C(=O)O)n23)n(-c2ccc(O)c(Cl)c2)n1` [Compound 24, 7-({2-[({[3-tert-butyl-1-(3-chloro-4-hydroxyphenyl)-1H-pyrazol-5-yl]carbamoyl}amino)methyl]phenyl}sulfanyl)imidazo[2,1-b][1,3]benzothiazole-3-carboxylic acid]: the inhibition at 1 µM is 40 to 60%. Same read-out and setting: as for `CCOC(=O)c1cnc2sc3cc(Oc4ccc(NC(=O)Nc5cc(C(C)(C)C)nn5-c5ccc(O)c(Cl)c5)cc4)ccc3n12` [Compound 26, ethyl 7-[4-({[3-tert-butyl-1-(3-chloro-4-hydroxyphenyl)-1H-pyrazol-5-yl]carbamoyl}amino)phenoxy]imidazo[2,1-b][1,3]benzothiazole-3-carboxylate], the figure is at most 20%; as for `CC(C)(C)c1cc(NC(=O)Nc2ccc(Oc3ccc4c(c3)sc3ncc(CO)n34)cc2)n(-c2ccc(O)c(Cl)c2)n1` [Compound 27, 1-[3-tert-butyl-1-(3-chloro-4-hydroxyphenyl)-1H-pyrazol-5-yl]-3-(4-{[3-(hydroxymethyl)imidazo[2,1-b][1,3]benzothiazol-7-yl]oxy}phenyl)urea], 60 to 80%. On the same count and under the same terms, the same measure for `CN(CCO)C(=O)c1cnc2sc3cc(Oc4ccccc4CNC(=O)Nc4cc(C(C)(C)C)nn4-c4ccc(O)c(Cl)c4)ccc3n12` [Compound 28, 7-{2-[({[3-tert-butyl-1-(3-chloro-4-hydroxyphenyl)-1H-pyrazol-5-yl]carbamoyl}amino)methyl]phenoxy}-N-(2-hydroxyethyl)-N-methylimidazo[2,1-b][1,3]benzothiazole-3-carboxamide]: 80 to 100%; for `CC(C)(C)c1cc(NC(=O)NCc2ccccc2Oc2ccc3c(c2)sc2ncc(CN4CCSCC4)n23)n(-c2ccc(O)c(Cl)c2)n1` [Compound 29, 1-[3-tert-butyl-1-(3-chloro-4-hydroxyphenyl)-1H-pyrazol-5-yl]-3-(2-{[3-(thiomorpholin-4-ylmethyl)imidazo[2,1-b][1,3]benzothiazol-7-yl]oxy}benzyl)urea]: 80 to 100%; for `CCOC(=O)CSCc1cn2c(n1)sc1cc(Oc3ccccc3CNC(=O)Nc3cc(C(C)(C)C)nn3-c3ccc(O)c(Cl)c3)ccc12` [Compound 30, ethyl {[(7-{2-[({[3-tert-butyl-1-(3-chloro-4-hydroxyphenyl)-1H-pyrazol-5-yl]carbamoyl}amino)methyl]phenoxy}imidazo[2,1-b][1,3]benzothiazol-2-yl)methyl]sulfanyl}acetate]: 80 to 100%. Same read-out and setting: as for `CC(C)(C)c1cc(NC(=O)NCc2ccccc2Oc2ccc3c(c2)sc2ncc(CN4CCOCC4)n23)n(-c2ccc(O)c(Cl)c2)n1` [Compound 35, 1-[3-tert-butyl-1-(3-chloro-4-hydroxyphenyl)-1H-pyrazol-5-yl]-3-(2-{[3-(morpholin-4-ylmethyl)imidazo[2,1-b][1,3]benzothiazol-7-yl]oxy}benzyl)urea], the figure is 80 to 100%. As to `COCc1c(C)nc2sc3cc(Oc4ccccc4CNC(=O)Nc4cc(C(C)(C)C)nn4-c4ccc(O)c(Cl)c4)ccc3n12` [Compound 37, 1-[3-tert-butyl-1-(3-chloro-4-hydroxyphenyl)-1H-pyrazol-5-yl]-3-(2-{[3-(methoxymethyl)-2-methylimidazo[2,1-b][1,3]benzothiazol-7-yl]oxy}benzyl)urea], the inhibition at 1 µM was 80 to 100%.

Consider `Cc1nc2sc3cc(Oc4ccccc4CNC(=O)Nc4cc(C(C)(C)C)nn4-c4ccc(O)c(Cl)c4)ccc3n2c1CN1CCOCC1` [Compound 40, 1-[3-tert-butyl-1-(3-chloro-4-hydroxyphenyl)-1H-pyrazol-5-yl]-3-(2-{[2-methyl-3-(morpholin-4-ylmethyl)imidazo[2,1-b][1,3]benzothiazol-7-yl]oxy}benzyl)urea], for which the inhibition at 1 µM fell in the range of 80 to 100%. Take `O=C(Nc1ccc(Oc2ccc3c(c2)sc2ncc(C(=O)O)n23)cc1)NC(CO)c1ccccc1` (stereo not drawn) [Compound 41, 7-(4-{[(2-hydroxy-1-phenylethyl)carbamoyl]amino}phenoxy)imidazo[2,1-b][1,3]benzothiazole-3-carboxylic acid]: the inhibition at 1 µM is at most 20%. On the same count and under the same terms, the same measure for `CCOC(=O)c1cnc2sc3cc(Oc4ccccc4CNC(=O)NC(CO)c4ccccc4)ccc3n12` (stereo not drawn) [Compound 42, ethyl 7-[2-({[(2-hydroxy-1-phenylethyl)carbamoyl]amino}methyl)phenoxy]imidazo[2,1-b][1,3]benzothiazole-3-carboxylate]: at most 20%; for `CCOC(=O)c1cnc2sc3cc(Oc4ccc(NC(=O)Nc5c(-c6ccccc6)noc5C)cc4)ccc3n12` [Compound 43, ethyl 7-(4-{[(5-methyl-3-phenyl-1,2-oxazol-4-yl)carbamoyl]amino}phenoxy)imidazo[2,1-b][1,3]benzothiazole-3-carboxylate]: at most 20%.

With `CCOC(=O)c1cnc2sc3cc(Oc4ccccc4CNC(=O)Nc4ccc(OC)c(Cl)c4)ccc3n12` [Compound 44, ethyl 7-[2-({[(3-chloro-4-methoxyphenyl)carbamoyl]amino}methyl)phenoxy]imidazo[2,1-b][1,3]benzothiazole-3-carboxylate], the inhibition at 1 µM lay within 40 to 60%. `CCOC(=O)c1cnc2sc3cc(Oc4ccccc4CNC(=O)Nc4cc(OC)cc(OC)c4)ccc3n12` [Compound 45, ethyl 7-[2-({[(3,5-dimethoxyphenyl)carbamoyl]amino}methyl)phenoxy]imidazo[2,1-b][1,3]benzothiazole-3-carboxylate]: the inhibition at 1 µM is at most 20%. On the same count and under the same terms, the same measure for `CCOC(=O)c1cnc2sc3cc(Oc4ccccc4CNC(=O)NC4CCCCC4)ccc3n12` [Compound 46, ethyl 7-(2-{[(cyclohexylcarbamoyl)amino]methyl}phenoxy)imidazo[2,1-b][1,3]benzothiazole-3-carboxylate]: at most 20%. Still for that read-out and setting: as for `CCOC(=O)c1cnc2sc3cc(Oc4ccc(NC(=O)Nc5ccc(Cl)c(C(F)(F)F)c5)cc4)ccc3n12` [Compound 47, ethyl 7-[4-({[4-chloro-3-(trifluoromethyl)phenyl]carbamoyl}amino)phenoxy]imidazo[2,1-b][1,3]benzothiazole-3-carboxylate], the figure is at most 20%; as for `COCc1c(C)nc2sc3cc(Oc4ccccc4CNC(=O)Nc4ccc(OC)c(Cl)c4)ccc3n12` [Compound 48, 1-(3-chloro-4-methoxyphenyl)-3-(2-{[3-(methoxymethyl)-2-methylimidazo[2,1-b][1,3]benzothiazol-7-yl]oxy}benzyl)urea], 60 to 80%; as for `COCc1c(C)nc2sc3cc(Oc4ccccc4CNC(=O)Nc4ccc(Cl)c(C(F)(F)F)c4)ccc3n12` [Compound 49, 1-[4-chloro-3-(trifluoromethyl)phenyl]-3-(2-{[3-(methoxymethyl)-2-methylimidazo[2,1-b][1,3]benzothiazol-7-yl]oxy}benzyl)urea], 80 to 100%. The same measure, in the same setting: as for `COCc1c(C)nc2sc3cc(Oc4ccccc4CNC(=O)Nc4cc(C(C)(C)C)no4)ccc3n12` [Compound 50, 1-(3-tert-butyl-1,2-oxazol-5-yl)-3-(2-{[3-(methoxymethyl)-2-methylimidazo[2,1-b][1,3]benzothiazol-7-yl]oxy}benzyl)urea], the figure is 80 to 100%; as for `CC(C)(C)c1cc(NC(=O)NCc2ccccc2Oc2ccc3c(c2)sc2ncc(COCC4CC4)n23)n(-c2ccc(O)c(Cl)c2)n1` [Compound 56, 1-[3-tert-butyl-1-(3-chloro-4-hydroxyphenyl)-1H-pyrazol-5-yl]-3-[2-({3-[(cyclopropylmethoxy)methyl]imidazo[2,1-b][1,3]benzothiazol-7-yl}oxy)benzyl]urea], 60 to 80%; as for `Cc1cnc(-c2cnc3sc4cc(Oc5ccccc5CNC(=O)Nc5cc(C(C)(C)C)nn5-c5ccc(O)c(Cl)c5)ccc4n23)o1` [Compound 64, 1-[3-tert-butyl-1-(3-chloro-4-hydroxyphenyl)-1H-pyrazol-5-yl]-3-(2-{[3-(5-methyl-1,3-oxazol-2-yl)imidazo[2,1-b][1,3]benzothiazol-7-yl]oxy}benzyl)urea], 60 to 80%.

With `CC(C)(C)c1cc(NC(=O)NCc2ccccc2Oc2ccc3c(c2)sc2ncc(CN4CCC(O)CC4)n23)n(-c2ccc(O)c(Cl)c2)n1` [Compound 65, 1-[3-tert-butyl-1-(3-chloro-4-hydroxyphenyl)-1H-pyrazol-5-yl]-3-[2-({3-[(4-hydroxypiperidin-1-yl)methyl]imidazo[2,1-b][1,3]benzothiazol-7-yl}oxy)benzyl]urea], the inhibition at 1 µM fell in the range of 60 to 80%.

For `CCOC(=O)c1cnc2sc3cc(Oc4ccccc4CNC(=O)Nc4cc(C(C)(C)C)nn4-c4ccccc4)ccc3n12` [Compound 67, ethyl 7-[2-({[(3-tert-butyl-1-phenyl-1H-pyrazol-5-yl)carbamoyl]amino}methyl)phenoxy]imidazo[2,1-b][1,3]benzothiazole-3-carboxylate], the inhibition at 1 µM lay in the range of 60 to 80%.

What is called inhibition is the drop in the measured response relative to a control, in per cent.
